The source of these data is patent US20240058455A1, “BIOORTHOGONAL LINKERS AND REACTIONS” (The General Hospital Corporation, priority 2020, published 2024).

Where a SMILES comes first, the peptide text is derived from it.

Series [1] is described as follows: Stability of C2TCO in full cell growth media, titration with DMT. It counts as in vitro ADME. The following applies: full cell growth media (10% FBS), 37° C., up to 48 h. From the text: C2TCO can be incorporated into probes that bind to intracellular targets.
Series [2] is described as follows: Endpoint cleavage of AF594-C2TCO-AF594 with tetrazines (HPLC, fluorescence detection). The note with it: 15 + excess tetrazine, buffered solution pH 7.4, endpoint 24 h. On the procedure: As an initial assessment of cleavage efficiency, 15 was reacted with an excess of selected tetrazines in buffered solution at pH 7.4 and analyzed the reaction mixtures at an endpoint of 24 h by HPLC with fluorescence detection. […] One hypothesis is that this is not only due to slow tautomerization, but also limited elimination of the respective B1/B2 intermediate. The inability to achieve complete release with Pyr2Tz highlights the advantages of a cleavage directing group.
Release measurements with AF594-C2TCO-AF594: Analytical stock solutions and buffers. 10 mM stock solutions of the release probe AF594-C2TCO-AF594 was prepared and further diluted with citrate-phosphate buffer (as indicated below), so that the final concentration of DMSO in buffer was never higher than 2%. Tetrazine stock solutions were prepared in DMSO at concentrations ranging from 10-100 mM and diluted with citrate-phosphate buffer (as indicated below), so that the final concentration of DMSO in buffer was never higher than 2%. […]
Endpoint measurements with AF594-C2TCO-AF594. […] The released AF594-amine was detected using an RF-20Axs fluorescence detector and confirmed by a LCMS-2020 mass spectrometer (ESI) implemented in the Nexera X2® UHPLC system.

The conditions of series [3]: in vivo; cited from earlier work.
Series [4] in a line: Second order rate constants of tetrazines with PEGylated rTCO 6. The following applies: reaction with PEGylated rTCO 6.
The nature of series [5]: Release from rTCO-AlexaFluor 350 conjugate monitored by LCMS. The note with it: Tz 200 μM, 7 125 μM, pH 7, 25° C.; PyrMe within ~8 hours, PyrPA initial fast phase. On the procedure:
Similar to the previous study (Carlson et al.), an rTCO-AlexaFluor 350 conjugate was used (7, FIG. 5) to further investigate the release step. Reactions were carried out in buffered aqueous solution at pH 7 and 25° C., selecting concentrations of PyrMe or PyrPA (200 μM) and 7 (125 μM) such that the click reaction was done in less than 4 minutes, allowing temporal monitoring of post-click reactions by LCMS. With PyrMe, slow monophasic release was observed that reached a yield of approximately 50% within ˜8 hours. […] To verify these hypotheses, PyrMe was reacted with rTCO-glycine, the release reaction was allowed to proceed to completion, and the non-releasing isomer was then isolated. […] This key finding is in line with the observations of Sarris et al., who achieved approx. 80% release with PymK (3) and invoked the preferred formation of the releasing adduct with the ethylammonium moiety in head-to-head position. (due to pre-click interaction of NH3^+ with the carbamate functionality of the leaving group) to explain this increased conversion.

Consider `OC1/C=C/C(O)CCCC1` (stereo not drawn) [C2TCO, anti-cyclooct-2-ene-1,4-diol], for which the “stability (intact C2TCO)” value in series [1] is listed as above 97%.
On to `Cc1nnc(C)nn1` [DMT], for which the cleavage entry in series [2] is “Nearly complete cleavage”.
Regarding `N=C(N)NCCCC[C@@H]1NC(=O)CCSSC[C@@H](C(N)=O)NC(=O)[C@@H]2CCCN2C(=O)[C@H](Cc2c[nH]c3ccccc23)NC(=O)[C@H](CC(=O)O)NC(=O)CNC1=O` [Eptifibatide] (HELM PEPTIDE1{[O=C(CCS[*:3])[*:2]].[N=C(N)NCCCC[C@H](N[*:1])C(=O)[*:2]].G.D.W.P.C.[am]}$PEPTIDE1,PEPTIDE1,1:R3-7:R3$$$V2.0), the half-life – broadly, the time needed for the level to fall by half in the phase considered – in series [3] is 3 to 4 h.
For the compound `c1ccc(-c2nnc(-c3ccccn3)nn2)nc1` [Pyr2Tz, 3,6-bis(2-pyridyl)tetrazine], the cleavage in series [2] amounted to 23%.
`Cc1nnc(-c2ccccn2)nn1` [PyrMe]: the “rate enhancement vs. DMT” value in series [4] was “up to 12 fold”. In addition, the release yield entry in series [5] is reported as “approximately 50%”.
As to `O=C(O)CCc1nnc(-c2ccccn2)nn1` [PyrPA], the release yield entry in series [5] is recorded as “very similar release yield”.
As to alteplase: widely-used tPA thrombolytic, the “clearance t1/2” value in series [3] is listed as “about 5 min”.
